Common to all, as to type: in vivo
The subject of series [1] is mice (RJ:NMRI, males). The series is described as follows: Bright/dark box test (clear/dark transition test). As to the method:
This model, also known as clear/dark transition test, is characterized as a model of conflict, based on the natural tendency to explore new environments versus avoidance of doing so, due to the potential possibility of the presence of aversive stimuli. It is an animal model based on independent behavior of conditioning, therefore, there is no need of learning. In rodents, this model is grounded in their natural aversion to excessively clear environments. This aversion is measured from the ansiogenic component expressed by lower exposure of the animal to the clear compartment.
The method employed followed the procedure described by Crawley and Goodwin (Pharmacol. Biochem. Behav. 1981, 15, 695-699).
The animals were placed on the clear field of a box comprising two compartments, one being illuminate and open (25 x 27 x 27 cm) and the other being dark and close (20 x 27 x 27 cm). Data on the length of stay in each compartment were collected over the three-minute test.
This test aimed at obtaining a comparison profile of response of Compound (A) (3-(2-(-4-(2-methoxyphenyl)piperazin-1-yl)ethyl)quinazolin-4(3H)-one and Compound (B) 3-(2-(4-(2-cyanophenyl)piperazin-1-yl)ethyl)quinazolin-4(3H)-one with known compounds that act by different mechanisms. The comparative compounds were alprazolam (benzodiazepine), paroxetine (ISRS-type antidepressant), venlafaxine (IRSN-type antidepressant) and agomelatine (antidepressant that acts on melatonin and serotonin 5-HT2C receptor). The following doses were employed in this study: Table 1: Tested compounds, concentrations and route of administration.
In this blind study, ten mice (RJ:NMRI, males) were employed per group. Clobazam (12 mg/Kg, i.p. route) was administered under the same study conditions as the reference compound. All compounds were administered 30 minutes before the test.
The test data of the response of substances were analyzed comparing the groups treated with the control vehicle using one-way ANOVA followed by post-hoc analysis of Dunnett's test. The data of the reference substance obtained were analyzed using unpaired Student's t test.

Series [2] concerns Mice. The series is described as follows: Non-precipitated withdrawal test. An excerpt: This test aims at assessing how the sudden cessation of the administration of a medicine can be associated with the occurrence of withdrawal identifiable symptoms. The types of symptoms examined are feed changes, weight gain, body temperature and the occurrence of one or behavioral symptoms and others, such as tremor, teeth chattering, wet dog body-shaking, diarrhea or piloerection. The triggering of these signs is a first sign that the substance induces dependence after repeated administration.
The method employed followed the procedure described by Goudie and Leathley (Psychopharmacology 1991, 103: 529-537).
Two mice per cage received two administrations per day (approximately 10:00 hours and 16:00 hours) of the test substance continuously during 19 days (day 1 to day 19), with the last administration occurring next to 10:00 hours of the 20th day. Control animals received the same number of administrations of vehicle. […] During the discontinuation phase, all animals received administration of vehicle once a day.
Additionally to the observations made after discontinuing the medicines, the same measures were taken at day 1 and day 10 of treatment, in addition to the 3 last days (days 18 to 20) immediately prior to administration of the dose in the morning to assess the effects of medicines before discontinuation. After discontinuation, the first observation was performed 24 hours after the last administration and, from then on, every 24 hours (days 21 to 28).
For daily measurements, the animals were evaluated with respect to behavioral changes during 5 minutes (two animals simultaneously observed). Then, their body weights and rectal temperatures were measured. Then, they received the proper treatment and were returned to their cages.
The leftover food in their supporters was weighed immediately after all animals return to their cages (only in the mornings), and food consumption in the previous 24 hours was determined.
The body weights, feed consumption and rectal temperatures were also measured 24 hours before the first administration, as reference values. The treated groups were homogenized with regard to body weights on the day preceding the first administration of the tested substances.
Compound (A) (3-(2-(-4-(2-methoxyphenyl)piperazin-1-yl)ethyl)quinazolin-4 (3H)-one) was evaluated in 3 doses (3, 10 and 30 mg/kg) administered orally (p.o.) and compared to the vehicle (control group).
Chlordiazepoxide (64 mg/kg, p.o.) was administered under the same experimental conditions, and was employed as reference substance in the test.
Paroxetine (15 and 30 mg/kg p.o.) was administered under the same experimental conditions and was used as comparative substance.
The test was blinded. Data were analyzed by comparing substances with their control vehicles employing one-way ANOVA with the group as a factor followed by post-hoc Dunnett tests. Data with the reference substance were analyzed using unpaired Student's t test.

Series [3] deals with Mice. The series is described as follows: Sphere hiding test. As to the method:
This test is based on the natural aversive behavior to glass and marble of rodents, where the presence of these objects triggers the action of burying (hiding). In this test, there are potential behavioral changes of medicines that may promote an ansiogenic or anxiolytic profile. This is determined by the increase or decrease of the behavior of hiding glass spheres ("marbles") that are randomly distributed on the surface of a box lined with sawdust. The increase of the number of covered balls is an indicative of anxiety, since it is supposed to represent a foreign agent to the animal, whose presence may pose threat. The administration of anxiolytics medicines decreases the number of spheres buried in non-sedative doses.
The method employed followed the procedure described by Broekkamp et al. (Eur. J. Pharmacol., 1986, 126, 223-229).
Mice were individually placed in transparent plastic cages (33 x 21 x 18 cm), with the floor covered by a 5 cm layer of sawdust and 25 glass spheres grouped in the center of the cage. The cage was covered with a perforated plastic cover. Each test cage, along with the glass spheres, were previously impregnated with "mouse odor", and a group of 10 mice was left inside for 15 minutes.
The number of glass spheres covered with sawdust (2/3 or more of the surface) was counted at the end of the 30 minutes of the test.
Each study group consisted of 12 mice. The test was partially blind (substances tested versus vehicle of the tested substances).
This test aimed at obtaining a comparison profile of response of Compound (A) (3-(2-(-4-(2-methoxyphenyl)piperazin-1-yl) ethyl) quinazolin-4 (3H) -one and Compound (B) (3-(2-(4-(2-cyanophenyl)piperazin-1-yl)ethyl)quinazolin-4(3H)-one) with known compounds that act by different mechanisms. The comparative compounds used were alprazolam (benzodiazepine) and paroxetine (ISRS-type antidepressant). These compounds were tested in the following doses: Table 3: Compounds tested, concentrations employed and route of administration.
Fluoxetine (ISRI antidepressant) was used as the positive control substance in the test, and was administered at 32 mg/kg (i.p.).
Quantitative data for the tested substances (number of glass spheres coated with sawdust) were evaluated by comparison with the treated groups using one-way ANOVA followed by planned comparisons against the appropriate vehicles. Data with fluoxetine were compared to the vehicle control using unpaired Student's t test.

The mark [4] stands for this setting: withdrawal phase, 64 mg/kg p.o.
The mark [5] stands for this setting: 8 mg/Kg i.p., 30 minutes before the test.
Setting [6] is: 8 mg/Kg i.p., 30 minutes before the test, three-minute test.
Where [7] appears, read: 16 mg/Kg i.p., 30 minutes before the test.
The mark [8] stands for this setting: 16 mg/Kg i.p., 30 minutes before the test, three-minute test.

SMILES strings stand for the structures. “And” between values parts separate entries of the source, which are not always exact repeats. Equal values may be shown once.

`COc1ccc2cccc(CCNC(C)=O)c2c1` [Agomelatine, agomelatine]: the “Time spent in the clear compartment compared to vehicle %” value (shortened to “Time spent … to vehicle %”) in series [1] (25 mg/Kg i.p., 30 minutes before the test) is -12%; in series [1] (50 mg/Kg i.p., 30 minutes before the test) it was -4%; in series [1] (75 mg/Kg i.p., 30 minutes before the test), -3%. The “Time spent in the clear compartment (seconds) (mean ± mean standard error)” value (from here on “Time spent … (mean ± mean standard error)”) is 64.7 ± 4.9 s in series [1] (25 mg/Kg i.p., 30 minutes before the test, three-minute test); 70.6 ± 8.5 s in series [1] (50 mg/Kg i.p., 30 minutes before the test, three-minute test); 71.3 ± 7.3 s in series [1] (75 mg/Kg i.p., 30 minutes before the test, three-minute test).
In the case of `Cc1nnc2n1-c1ccc(Cl)cc1C(c1ccccc1)=NC2` [Alprazolam, alprazolam], in series [2] (mouse, in vivo), the “amount of food consumed” value is reported as “significant reduction in the amount of food consumed on the first day of abstinence”; the “body weight, amount of food consumed and rectal temperature (the three studied parameters)” value was “showed no significant changes”. For the same compound, the “withdrawal syndrome after an extended administration regimen” value in series [2] (mouse, in vivo, po) is recorded as “induces withdrawal syndrome”. Moreover, in series [3] (mouse, in vivo), the “Number of Hidden Spheres (mean ± mean standard error)” value (“Number … (mean ± mean standard error)” below) is given as 1,6 ± 1,4 and the “Number of Hidden Spheres Compared to vehicle control %” value (“Number … to vehicle control %” for short) is -92%. Further, the “Time spent … (mean ± mean standard error)” value in series [1] (mouse, in vivo) is 103.9 ± 11.5 s and 126.9 ± 10.1 s and 112.7 ± 15.5 s.
`CNC1=Nc2ccc(Cl)cc2C(c2ccccc2)=[N+]([O-])C1` [Chlordiazepoxide]: the “withdrawal syndrome after an extended administration regimen” value in series [2] (overall conclusion of the test, p.o., two administrations per day, day 1 to 20) is “induces a clear withdrawal syndrome”. In series [2] (treatment phase, 64 mg/kg p.o.), the “behavioral and psychological effects” value is “ptosis, hyperactivity, jumps and dyspnoea”; the “body weight and amount of food consumed” value was “did not induce significant changes”; the rectal temperature result is recorded as “slight increase of rectal temperature”. Besides, in series [2] (setting [4]), the “behavioral and psychological effects” value is “intensified the psychological behaviors and symptoms, mainly dyspnoea and hyperactivity, inducing occasional straub tail and teeth chattering”; the “body weight, amount of food consumed and rectal temperature” value is “clear reduction in body weight and the amount of food consumed, and a significant increase of rectal temperature”.
In the case of `CN1C(=O)CC(=O)N(c2ccccc2)c2cc(Cl)ccc21` [Clobazam], the “Time spent … to vehicle %” value in series [1] (12 mg/Kg i.p., 30 minutes before the test, reference compound) is recorded as “+41%”. In addition, the “Time spent … (mean ± mean standard error)” value in series [1] (12 mg/Kg i.p., 30 minutes before the test, three-minute test, reference compound) amounted to 104.0 ± 5.2 s.
Consider `N#Cc1ccccc1N1CCN(CCn2cnc3ccccc3c2=O)CC1` [Compound (B), 3-(2-(4-(2-cyanophenyl)piperazin-1-yl)ethyl)quinazolin-4(3H)-one], for which the “Number … to vehicle control %” value in series [3] (dose given in Table 4 as (4), i.p.) is -42%; in series [3] (dose given in Table 4 as (8), i.p.), -89%. Besides, the “Number … (mean ± mean standard error)” value is given as 11.0 ± 3.3 in series [3] (dose given in Table 4 as (4), i.p., 25 glass spheres, counted at the end of 30 minutes) and 2.1 ± 2.1 in series [3] (dose given in Table 4 as (8), i.p., 25 glass spheres, counted at the end of 30 minutes). For the same compound, the “number of hidden spheres (result in words)” value in series [3] (summary of Table 4 over the doses tested, i.p.) is reported as “significantly reduced the number of hidden spheres”. The “Time spent … to vehicle %” value is “+37%” in series [1] (4 mg/Kg i.p., 30 minutes before the test); “+40%” in series [1] (setting [5]); “+103%” in series [1] (setting [7]). Moreover, the “Time spent … (mean ± mean standard error)” value was 100.9 ± 15.2 s in series [1] (4 mg/Kg i.p., 30 minutes before the test, three-minute test); 103.0 ± 11.5 s in series [1] (setting [6]); 149.3 ± 11.0 s in series [1] (setting [8]). The “permanence time in the clear compartment (result in words)” value in series [1] (summary of Table 2 over the doses tested, i.p.) was “efficient in extending the permanence time in the clear compartment”.
As to `CNCCC(Oc1ccc(C(F)(F)F)cc1)c1ccccc1` (stereo not shown) [Fluoxetine], the “Number … to vehicle control %” value in series [3] (32 mg/kg i.p., positive control) is -74%. For the same compound, the “Number … (mean ± mean standard error)” value in series [3] (32 mg/kg i.p., positive control, 25 glass spheres, counted at the end of 30 minutes) is given as 4.9 ± 2.0.
Turning to `COc1ccc(C(CN(C)C)C2(O)CCCCC2)cc1` (stereo not shown) [Venlafaxine, venlafaxine], the “Time spent … to vehicle %” value is -2% in series [1] (setting [5]); -12% in series [1] (setting [7]); “+7%” in series [1] (32 mg/Kg i.p., 30 minutes before the test). Besides, the “Time spent … (mean ± mean standard error)” value was 72.3 ± 7.3 s in series [1] (setting [6]); 65.1 ± 6.0 s in series [1] (setting [8]); 78.9 ± 4.9 s in series [1] (32 mg/Kg i.p., 30 minutes before the test, three-minute test).

(Values after patent EP3130339A1, “A COMPOUND FOR USE IN THE TREATMENT OF COMORBID ANXIETY DISORDER AND DEPRESSION DISORDER” (Aché Laboratórios Farmacêuticos S.A., priority 2015, dated 2017).)
